Results reported in the COVID Moonshot data (paper PMC7615835).
“And” between values parts separate entries of the source, which are not always exact repeats. Equal entries are not always repeated.

Biological target: SARS-CoV-2 Main Protease (SARS-CoV-2) (UniProt P0DTD1)

| SMILES | IC50 |
| --- | --- |
| CC(C)S(=O)(=O)Nc1ccc2c(NC(=O)C3CN(S(=O)(=O)CC4(C#N)CC4)Cc4ccc(Cl)cc43)cncc2c1 (centres undefined) | 89.8 nM |
| O=C(Cc1cc(Cl)cc(Nc2ccc(C(F)(F)F)cc2)c1)Nc1cncc2ccccc12 | 2060 nM |
| O=C1CCc2cc(C(=O)N3CCC(C4CCNC4)CC3)ccc2N1 (centres undefined) | > 99500 nM |
| Cc1cc(Nc2ccc3nc(C)sc3c2)n2ncnc2n1 | > 99500 nM |
| Cc1[nH]ncc1CC(=O)Nc1cccc(Cl)c1 | 54600 nM |
| O=C1N(c2cncc3ccccc23)CCC12CN(Cc1nncs1)Cc1ccc(Cl)cc12 (centres undefined) | 263 nM |
| O=C(Nc1cnccc1Cl)c1cc(Cl)ccc1O | 24200 nM |
| O=C(NCc1ccc2[nH]c(=O)[nH]c2c1)Nc1ccc(F)c(F)c1 | > 99500 nM |
| CNC(=O)c1ccc2cncc(NC(=O)C3CN(S(=O)(=O)CC4(C#N)CC4)Cc4ccc(Cl)cc43)c2c1 (centres undefined) | 116 nM |
| Cc1nc2ccc(NCc3cnc4ccccn34)cn2n1 | > 99500 nM |
| O=C(NCC(c1ccccc1)c1c[nH]c2ccccc12)c1cnccn1 (centres undefined) | > 99500 nM |
| Cc1nc2ccc(NC(=O)NCc3ccc4[nH]c(=O)[nH]c4c3)cc2o1 | > 99500 nM |
| N#Cc1ccc(C(=O)N2C[C@@H](F)C[C@H]2CNC(=O)C2CCCC2O)[nH]1 (stereo in doubt) | > 99500 nM |
| O=C(Cc1cc(Cl)cc(N2CCC(O)(c3ccc(Cl)cc3)CC2)c1)Nc1cncc2ccccc12 | 5210 nM |
| Cc1nccn1-c1ccc(Nc2cc(Cl)cc(CC(=O)Nc3cncc4ccccc34)c2)cc1 | 2480 nM |
| Cn1nc(C(C(=O)NCCc2cccc(F)c2)N(C(=O)c2ccco2)c2ccc(C(C)(C)C)cc2)c2ccccc21 (centres undefined) | > 99500 nM |
| O=C(NCCc1cccc(F)c1)C(c1cccnc1)N(C(=O)c1cocn1)c1ccccc1 (centres undefined) | 89200 nM |
| CC(C)(C)N(Cc1ccccc1)c1cc(Cl)cc(CC(=O)Nc2cncc3ccccc23)c1 | 1910 nM |
| COc1ccc(C(Cc2cnn(C)c2)C(=O)Nc2c[nH]c3ccccc23)cc1 (centres undefined) | > 99500 nM |
| O=C(CCl)N1CC2CC1CN2Cc1cccc(Cl)c1 (centres undefined) | 2170 nM |
| O=C(Cc1cc(Cl)cc(Nc2cccc(OC(F)(F)F)c2)c1)Nc1cncc2ccccc12 | 1930 nM |
| Cc1noc2ncc(CNc3ccc(-c4nnnn4C)cc3)cc12 | > 99500 nM |
| Cc1ccc(S(=O)(=O)N2CCN(C(=O)CCl)C[C@H]2C(=O)NCc2ccccc2)cc1 (stereo in doubt) | 3650 nM |
| O=C(Nc1cncc2ccccc12)C1CN(S(=O)(=O)C2COC2)Cc2ccc(Cl)cc21 (centres undefined) | 246 nM |
| CC(C)(C)c1csc(Nc2cc(Cl)cc(CC(=O)Nc3cncc4ccccc34)c2)n1 | 2090 nM |

| SMILES | IC50 |
| --- | --- |
| CN(Cc1ccccc1Nc1cc(Cl)cc(CC(=O)Nc2cncc3ccccc23)c1)C1CCCCC1 | 2220 nM |
| O=C(Cn1nnc2ccccc21)N(Cc1cccc(Cl)c1)c1ccc(N2CCOCC2)cc1 | 3700 nM |
| COc1cccc(C2=N/C(=C/c3sccc3C)C(=O)O2)c1 | 1170 nM |
| O=C(NCCc1cccc(F)c1)C(c1cccnc1)N(Cc1ccccc1)C(=O)c1cnc[nH]1 (centres undefined) | > 99000 nM |
| Cc1nc2cc(NC(=O)Cn3cnc4c(cnn4C)c3=O)ccc2o1 | > 99500 nM |
| COC(=O)[C@@H]1C[C@H](NC(=O)C(c2cccnc2)N(C(=O)c2cocn2)c2ccc(C(C)(C)C)cc2)CN1C(=O)OC(C)(C)C (stereo in doubt) | 2660 nM |
| CC(C)c1nc(CN(C)c2cc(Cl)cc(CC(=O)Nc3cncc4ccccc34)c2)cs1 | 2630 nM |
| CC(C)CS(=O)(=O)N1Cc2ccc(Cl)cc2C(C(=O)Nc2cncc3ccccc23)C1 (centres undefined) | 107 nM |
| Cc1cc2c(N)nc(=O)n(CC(=O)Nc3cccc(Cl)c3)c2s1 | > 99500 nM |
| Cn1ccc2cc(N(C(=O)c3cocn3)C(C(=O)NCCc3cccc(F)c3)c3cccnc3)ccc21 (centres undefined) | 23800 nM |
| Cc1nnn(NC(=O)Cc2cccc(Cl)c2)c1C | 14200 nM |
| C[C@]1(C(=O)Nc2cncc3c2CCCC3)CNS(=O)(=O)c2ccc(Cl)cc21 (stereo in doubt) | 214 nM |
| CN(C)C(=O)CN1CC(C(=O)Nc2cncc3ccccc23)c2cc(Cl)ccc2C1=O (centres undefined) | 734 nM |
| O=C(Cc1cc(Cl)cc(Nc2ccc(I)cn2)c1)Nc1cncc2ccccc12 | 2210 nM |
| N#CC1(CS(=O)(=O)N2Cc3ccc(Cl)cc3[C@H](C(=O)Nc3cncc4ccccc34)C2)CCS(=O)(=O)CC1 (stereo in doubt) | < 50 nM and 81.4 nM and 52.4 nM |
| O=C(O)CC1(C(=O)Nc2cncc3ccccc23)CCOc2ccc(Cl)cc21 (centres undefined) | 31400 nM and > 9950 nM |
| O=c1[nH]c2ccc(NC(=S)Nc3ccccc3Cl)cc2[nH]1 | > 99500 nM |
| CC(C)NC(=O)CN1CC(C(=O)Nc2cncc3ccccc23)c2cc(Cl)ccc2C1=O (centres undefined) | 389 nM |
| Cc1nc2sccn2c1CN(C)C(=O)c1cn2ccccc2n1 | > 99500 nM |
| CC(C)(C)c1ccc(N(C(=O)c2ccc(=O)[nH]n2)C(C(=O)NCCc2cccc(F)c2)c2cccnc2)cc1 (centres undefined) | > 99500 nM |
| CCNc1ncc(C#N)cc1CN1CCN(C(=O)CCl)CC1 | 3220 nM |
| CC(C)(C)c1ccc(N(C(=O)c2cocn2)C(C(=O)NCCc2nnn[nH]2)c2cccnc2)cc1 (centres undefined) | > 99500 nM |
| O=C(Cc1cc(Cl)cc(NCCc2ccc(Cl)c(Cl)c2)c1)Nc1cncc2ccccc12 | 5410 nM |
| Cc1ccncc1NC(=O)Cc1cc(Cl)cc(OCc2cc(-c3ccc(Cl)cc3)no2)c1 | > 99500 nM |
